Series [1] deals with tobacco hornworm (Manduca sexta) larvae. In words: Tobacco hornworm growth and developmental responses to feeding on diets containing the compounds. The class given is in vivo. Here is the method: The compounds produced and described in Example 1 were then tested for pesticidal activity against the tobacco hornworm (Manduca sexta). The screening procedure for these tests began with the larval stage and continued through the pupal and adult stages and finally evaluated egg production. The studies thus permitted the evaluation of the effects of the compounds over several subsequent developmental stages in the total life cycle of the insect, giving estimates of acute toxicity (insecticidalor larvicidal activity) as well as prolonged or delayed effects on development (growth regulation) and reproduction (chemosterilization). The latter are of special importance in conjunction with the integrated pest management approach to insect control.
The test compounds were incorporated into the artificial diet of tobacco hornworm larvae and their subsequent growth and developmental responses were monitored using the following parameters: larval mortality including determination of LD50 values, rate of larval development and weight gain, percent pupation, pupal weight and degree of deformities, percent adult emergence and measures of reproductive capacity such as the number of developed ooctyes, fecundity and fertility. The protocol for the screening tests has been developed over a number of years by Dahlman et al., Comp. Biochem. Physiol. 51A, 33, (1975); Comp. Biochem. Physiol., 52A, 105 (1975); Ent. Exp. et Appl., 22, 123 (1977); Palumbo and D. L. Dahlman, J. Econ. Entomol. 71, 674 (1978); D. L. Dahlman, Ent. Exp. et Appl., 24, 327 (1978).
Each treatment used 15 newly ecdysed fifth-instar larvae. Death of larvae within a few hours to several days of initial exposure was considered to be acute toxicity. However, the compounds may reduce the maximum size attained by larvae and/or may retard growth so that larvae require additional time to attain their maximum size. Developmental parameters subsequent to the feeding stage also may be affected. […] Mortality may occur in the pupal stage or emerging adults may have wrinkled wings or other deformities. The number of eggs produced by treated females may be reduced and/or unfertile. Although acute toxicity is desirable in the control of any insect, the delayed effects which result in poor survival and reduced reproductive capacity are significant factors in the long-range program of pest management systems.
Continuous cultures of M. sexta are maintained according to the procedures of Yamamoto, J. Econ. Entomol., 62, p. 1427 (1969). Ingredients of the diet formulation include sugar, casein, wheat germ oil, cholesterol, salt mixture, yeast, vitamins, antioxidants and fungal inhibitors, such as ascorbic acid, sorbic acid, formaldehyde and methyl-p-benzoate. All are incorporated into a liquid agar base which, when poured into holding pans, solidifies to form an adequate substrate upon which the insect larvae feed. Nearly any test material can be uniformly incorporated into such a diet. Thus, exposure to experimental compounds can be evaluated during all or any part of the larval stage. In addition, chronic or long-term effects in subsequent life stages can also be monitored.
The results from these studies, in which the 1,2-diphenylaziridines of Example 1 were incorporated singly into the diet of M. sexta at a concentration of 5 mM are presented in the following Table I.

Series [2] concerns tobacco hornworm larvae (newly ecdysed fifth-instar). Kind of series: Topical application to tobacco hornworm larvae. The class given is in vivo, Manduca sexta. Here is the method: The test compounds were dissolved either in acetone or hexane and applied to the integument of the test insect with a micro applicator. Newly ecdysed fifth-instar tobacco hornworm larvae weighing between 1-1.5 g were used and toxicity data were obtained in the same way as previously described.

A further series concerns H. virescens larvae. Kind of series: Topical application to H. virescens larvae. The class given is in vivo, Heliothis virescens. The following applies: within 48 hr.
The next series concerns mammals. The following applies: cited from earlier work.
For a further series, the system named is H. virescens. Kind of series: Incorporation into H. virescens diet. The class given is in vivo, Heliothis virescens. The following applies: as much as 20 mM in diet. Here is the method: Compounds 1, 10, 11, 13 and 14 were incorporated into H. virescens diet in the same manner as M. Sexta. Diets containing as much as 20 mM of each compound had little effect on larval development time, pupal weight or time to adult emergence.

Series [3] has as its system Salmonella typhimurium strains TA 98, TA 100, TA 1535, TA 1537, TA 1538, TA 1978. In words: Ames assay (spot test), revertant colonies. The series is classed as cell-based. Here is the method:
This means that aziridine compounds, 1, 10, or 11, will not cause mutations in DNA arising from potential changes in frame shift and/or base pairing. Compounds 1, 10 and 11 were tested for mutagenic properties using the following experimental procedure.
Potential mutagenic and carcinogenic properties of the compounds were evaluated with standard Ames assay procedures (Ames et al, "Mutation Res.", 31, p. 347, 1975). This assay used strains of Salmonella typhimurium selected for sensitivity and specificity in being reverted from a histidine requirement back to prototrophy by a wide variety of mutagens. Potential changes in frameshift were evaluated using strains TA 98, TA 1537 and TA 1538, while changes in base pairing were detected using strains TA 100 and TA 1535. In addition, strain TA 1978 was used, in combination with TA 1538, to evaluate whether the agent killed bacteria by damage to DNA that could be repaired by this strain. Initially, the compounds were screened using the spot test, in which 1000 μgm of material dissolved in 10 μl of DNSO was applied to the middle of the plate.
Dose-response tests were not performed because the results were negative. All the tests were carried out in the presence and absence of an S9 rat liver preparation and contained a positive control (2-acetylaminofluorene,AAF) and a negative control (DMSO).

Some results are limits rather than exact numbers.

Regarding `Fc1ccc(N2CC2c2ccccc2F)cc1` (stereo not shown) [Compound 15], in series [1] (5 mM in diet), the “% Adult Emergence” value came out at 60%, the “% Malformed Adults” value is 0%, the “% Pupation” value is reported as 67% and the “Days to Max Wt” value is 6.7 ± .4 days. Further, in series [1] (5 mM in diet), the “Max Larval Wt” value is reported as 8.04 ± .41 g, the “Mean No. of Eggs” value is 67 ± 42 and the “No. of female Adults” value came out at 3. Further, in series [1] (5 mM in diet, all tests began with 15 larvae), the “Total No. of Adults” value is given as 9. In series [2] (125 μg/larvae), the “size of surviving larvae” value is given as “smaller than controls”. The mortality at 125 µg/larva in series [2] (Manduca sexta, topical, 125 μg/larvae, during the entire 5th instar) was determined as 20%. In series [2] (Manduca sexta, topical, 250 μg/larva, within 24 hr), this molecule yielded a mortality at 250 µg/larva of 100%. In the series with H. virescens larvae (62.5 μg/larva or 625 ppm topical, 100 mg larvae), this molecule yielded a larvae killed of 60%. The molecule further gave a larvae killed in the series on H. virescens larvae (312 ppm topical) of 40%.
Regarding `O=P(N1CC1)(N1CC1)N1CC1` [tepa, tris(1-aziridinyl)-phosphine oxide], the “toxicity reported in the literature” value with mammals was “carcinogenic and mutagenic properties”.
On to `Clc1ccccc1C1CN1c1ccc(Br)cc1` (stereo not shown) [Compound 1], for which, in series [1] (1 mM in diet), the “% Adult Emergence” value stood at 100%, the “% Adults” value worked out at 100%, the “% Malformed Adults” value is 0% and the “% Pupation” value is 100%. Also, in series [1] (1 mM in diet), the “Days to Max Wt” value was 5.8 ± .2 days, the “Max Larval Wt” value was determined as 7.94 g, the “Mean No. of Eggs” value is 32 ± 9 and the “No. of female Adults” value worked out at 10. Also, in series [1] (1 mM in diet), the “Total No. of Adults” value stood at 15 and the “larval weight” value is “a slight reduction in larval weight”. Further, the “mean number of eggs” value in series [1] (1 mM in diet, relative to controls) is “only half that of the controls”. In series [1] (2.5 mM in diet), the “% Adult Emergence” value came out at 100%, the “% Adults” value is reported as 27%, the “% Malformed Adults” value worked out at 50% and the “% Pupation” value is given as 27%. Moreover, in series [1] (2.5 mM in diet), the “Days to Max Wt” value came to 6.2 ± 0.7 days, the “Max Larval Wt” value amounted to 4.99 g, the “Mean No. of Eggs” value came out at 8 ± 9 and the “No. of female Adults” value turned out to be 2. Also, in series [1] (2.5 mM in diet), the “Total No. of Adults” value is given as 4; the “malformed adults” value is recorded as “a large percentage”; the “maximum larval weight and mean number of eggs” value was “reduced maximum larval weight and the mean number of eggs”; the “percent pupation” value is recorded as “lowered the percent pupation”. Also, in series [1] (5 mM in diet), the “larval death (words in table)” value is listed as “ALL DEAD BY SECOND DAY OF FEEDING”; the “larval mortality” value is listed as “all or nearly all larvae died”; the symptoms of larvae result is “extreme agitation of larvae, oral and anal expulsion of fluids and ultimately, death”; the “time until all larvae dead” value is ≥ 48 h. The “oral activity” value in series [1] (diet, Example 2) is recorded as “good oral activity”. The “larval mortality (acute toxicity)” value in series [1] (in 24-72 hours, summary of Tables I and II) is reported as 100%. Besides, the “time to 100% larval mortality” value in series [1] (summary of Tables I and II) lay within 24 to 72 h. In series [2] (1000 μg/larva (800 ppm), within 48 hr), this molecule returned a larvae killed of 70%. Moreover, the “developmental effects” value in series [2] (400 ppm topical) was “delayed larval development, reduced maximum size and the number of resulting eggs”. In the series on H. virescens, the “effect on larval development time, pupal weight or time to adult emergence” value is “little effect”. Further, in series [3] (strain TA 98, +S9), the “Mean number of revertant colonies per plate, TA 98 +S9” value is 44.0 colonies per plate. The “Mean number of revertant colonies per plate, TA 98 -S9” value in series [3] (strain TA 98, -S9) was found to be 32.7 colonies per plate. Further, in series [3] (strain TA 100, +S9), the “Mean number of revertant colonies per plate, TA 100 +S9” value is on record as 61.7 colonies per plate. The “Mean number of revertant colonies per plate, TA 100 -S9” value in series [3] (strain TA 100, -S9) is listed as 25.3 colonies per plate. Besides, the “Mean number of revertant colonies per plate, TA 1535 +S9” value in series [3] (strain TA 1535, +S9) is listed as 15.0 colonies per plate. Also, in series [3] (strain TA 1535, -S9), the “Mean number of revertant colonies per plate, TA 1535 -S9” value is 17.3 colonies per plate. Moreover, the “Mean number of revertant colonies per plate, TA 1537 +S9” value in series [3] (strain TA 1537, +S9) came to 13.3 colonies per plate. Moreover, the “Mean number of revertant colonies per plate, TA 1537 -S9” value in series [3] (strain TA 1537, -S9) was 7.5 colonies per plate. Further, in series [3] (strain TA 1538, +S9), the “Mean number of revertant colonies per plate, TA 1538 +S9” value worked out at 26.7 colonies per plate. In addition, the “Mean number of revertant colonies per plate, TA 1538 -S9” value in series [3] (strain TA 1538, -S9) was 12.0 colonies per plate. Further, in series [3] (strain TA 1978, +S9), the “Mean number of revertant colonies per plate, TA 1978 +S9” value worked out at 189.0 colonies per plate. Besides, in series [3] (strain TA 1978, -S9), the “Mean number of revertant colonies per plate, TA 1978 -S9” value was determined as 207.3 colonies per plate. In addition, the “mutagenicity” value in series [3] (with and without S9 / mammalian liver enzymes) is on record as “not mutagenic”.
For the molecule `CC1CN1P(=O)(N1CC1C)N1CC1C` (stereo not shown) [metepa, tris(2-methyl-1-aziridinyl)phosphine oxide], in the series on mammals, the “toxicity reported in the literature” value was “carcinogenic and mutagenic properties”.

The values are drawn from US4582827A, “Pesticidal diphenylaziridines” (priority 1983, dated 1986).
